According to publication PMC7156458, “Synthetic biology based construction of biological activity-related library of fungal decalin-containing diterpenoid pyrones” (Nature Communications, 2020):

Biological target: Aβ42 (Homo sapiens, UniProt P05067)
Assay: Th-T (thioflavin-T) assay of Aβ42 aggregation
Format: biochemical
Details: for Th-T assay plate reading, mean of three wells (Supplementary Fig. 47): source data, Ab alone and No Ab as controls

Aβ42, sequence (P05067 672-713): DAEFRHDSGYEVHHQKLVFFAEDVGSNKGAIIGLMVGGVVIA

Th-T fluorescence, mean of three wells (Aβ42 aggregation time course, reading M117): 2.764 | Th-T fluorescence, mean of three wells (Aβ42 aggregation time course, reading M118): 2.782 | Th-T fluorescence, mean of three wells (Aβ42 aggregation time course, reading M119): 2.76 | Th-T fluorescence, mean of three wells (Aβ42 aggregation time course, reading M120): 2.773 | Th-T fluorescence, mean of three wells (Aβ42 aggregation time course, reading M121): 2.751 | Th-T fluorescence, mean of three wells (Aβ42 aggregation time course, reading M122): 2.756 | Th-T fluorescence, mean of three wells (Aβ42 aggregation time course, reading M123): 2.7381 | Th-T fluorescence, mean of three wells (Aβ42 aggregation time course, reading M124): 2.734 | Th-T fluorescence, mean of three wells (Aβ42 aggregation time course, reading M125): 2.771 | Th-T fluorescence, mean of three wells (Aβ42 aggregation time course, reading M126): 2.764 | Th-T fluorescence, mean of three wells (Aβ42 aggregation time course, reading M127): 2.744 | Th-T fluorescence, mean of three wells (Aβ42 aggregation time course, reading M128): 2.737 | Th-T fluorescence, mean of three wells (Aβ42 aggregation time course, reading M129): 2.759 | Th-T fluorescence, mean of three wells (Aβ42 aggregation time course, reading M130): 2.729 | Th-T fluorescence, mean of three wells (Aβ42 aggregation time course, reading M131): 2.75 | Th-T fluorescence, mean of three wells (Aβ42 aggregation time course, reading M132): 2.778 | Th-T fluorescence, mean of three wells (Aβ42 aggregation time course, reading M133): 2.76 | Th-T fluorescence, mean of three wells (Aβ42 aggregation time course, reading M134): 2.744 | Th-T fluorescence, mean of three wells (Aβ42 aggregation time course, reading M135): 2.723 | Th-T fluorescence, mean of three wells (Aβ42 aggregation time course, reading M136): 2.752 | Th-T fluorescence, mean of three wells (Supplementary Fig. 47, reading M137): 2.732 | Th-T fluorescence, mean of three wells (Supplementary Fig. 47, reading M138): 2.752 | Th-T fluorescence, mean of three wells (Supplementary Fig. 47, reading M139): 2.7362 | Th-T fluorescence, mean of three wells (Supplementary Fig. 47, reading M140): 2.723 | Th-T fluorescence, mean of three wells (Supplementary Fig. 47, reading M141): 2.765 | Th-T fluorescence, mean of three wells (Supplementary Fig. 47, reading M142): 2.731 | Th-T fluorescence, mean of three wells (Supplementary Fig. 47, reading M143): 2.798 | Th-T fluorescence, mean of three wells (Supplementary Fig. 47, reading M144): 2.748 | Th-T fluorescence, mean of three wells (Supplementary Fig. 47, reading M145): 2.777 | Th-T assay plate reading, mean of three wells (Supplementary Fig. 47) (measurement M1): 0.3186 | Th-T assay plate reading, mean of three wells (Supplementary Fig. 47) (measurement M2): 0.3159 | Th-T assay plate reading, mean of three wells (Supplementary Fig. 47) (measurement M3): 0.3554 | Th-T assay plate reading, mean of three wells (Supplementary Fig. 47) (measurement M4): 0.4086 | Th-T assay plate reading, mean of three wells (Supplementary Fig. 47) (measurement M5): 0.4658 | Th-T assay plate reading, mean of three wells (Supplementary Fig. 47) (measurement M6): 0.5438 | Th-T assay plate reading, mean of three wells (Supplementary Fig. 47) (measurement M7): 0.6121 | Th-T assay plate reading, mean of three wells (Supplementary Fig. 47) (measurement M8): 0.6677 | Th-T assay plate reading, mean of three wells (Supplementary Fig. 47) (measurement M9): 0.6972 | Th-T assay plate reading, mean of three wells (Supplementary Fig. 47) (measurement M10): 0.7395 | Th-T assay plate reading, mean of three wells (Supplementary Fig. 47) (measurement M11): 0.7934 | Th-T assay plate reading, mean of three wells (Supplementary Fig. 47) (measurement M12): 0.8591 | Th-T assay plate reading, mean of three wells (Supplementary Fig. 47) (measurement M13): 0.9703 | Th-T assay plate reading, mean of three wells (Supplementary Fig. 47) (measurement M14): 1.131 | Th-T assay plate reading, mean of three wells (Supplementary Fig. 47) (measurement M15): 1.366 | Th-T assay plate reading, mean of three wells (Supplementary Fig. 47) (measurement M16): 1.644 | Th-T fluorescence, mean of three wells (reading M17, Supplementary Fig. 47 source data): 1.91 | Th-T fluorescence, mean of three wells (time-course reading M97, Supplementary Fig. 47 source data): 2.7952 | Th-T fluorescence, mean of three wells (time-course reading M98, Supplementary Fig. 47 source data): 2.787 | Th-T fluorescence, mean of three wells (time-course reading M99, Supplementary Fig. 47 source data): 2.818 | Th-T fluorescence, mean of three wells (time-course reading M100, Supplementary Fig. 47 source data): 2.783 | Th-T fluorescence, mean of three wells (time-course reading M101, Supplementary Fig. 47 source data): 2.764 | Th-T fluorescence, mean of three wells (time-course reading M102, Supplementary Fig. 47 source data): 2.765 | Th-T fluorescence, mean of three wells (time-course reading M103, Supplementary Fig. 47 source data): 2.763 | Th-T fluorescence, mean of three wells (time-course reading M104, Supplementary Fig. 47 source data): 2.782 | Th-T fluorescence, mean of three wells (time-course reading M105, Supplementary Fig. 47 source data): 2.776 | Th-T fluorescence, mean of three wells (time-course reading M106, Supplementary Fig. 47 source data): 2.782 | Th-T fluorescence, mean of three wells (time-course reading M107, Supplementary Fig. 47 source data): 2.786 | Th-T fluorescence, mean of three wells (time-course reading M108, Supplementary Fig. 47 source data): 2.803 | Th-T fluorescence, mean of three wells (time-course reading M109, Supplementary Fig. 47 source data): 2.779 | Th-T fluorescence, mean of three wells (time-course reading M110, Supplementary Fig. 47 source data): 2.789 | Th-T fluorescence, mean of three wells (time-course reading M111, Supplementary Fig. 47 source data): 2.786 | Th-T fluorescence, mean of three wells (time-course reading M112, Supplementary Fig. 47 source data): 2.79 | Th-T fluorescence, mean of three wells (time-course reading M113, Supplementary Fig. 47 source data): 2.795 | Th-T fluorescence, mean of three wells (time-course reading M114, Supplementary Fig. 47 source data): 2.781 | Th-T fluorescence, mean of three wells (time-course reading M115, Supplementary Fig. 47 source data): 2.739 | Th-T fluorescence, mean of three wells (time-course reading M116, Supplementary Fig. 47 source data): 2.771
Compound: C=C1CCC2C(C)(CCC=C(C)C)C(O)CCC2(C)C1Cc1c(O)c(C)c(C)oc1=O (stereo not drawn) [Compound 4]
